Patent US9834542B2, “LXR modulators” (BRISTOL-MYERS SQUIBB COMPANY, priority 2013, dated 2017)

Biological target: T1, LXRβ (Homo sapiens, UniProt P55055)
T1 construct: Co-transfection expression plasmids, comprising full-length LXRα (pCMX-h LXRα[…] or LXRβ (pCMX-hLXRβ)); expressed in transfected cells; host or cells: CV-1 African Green Monkey Kidney Cells
T1 sequence (P55055 1-460): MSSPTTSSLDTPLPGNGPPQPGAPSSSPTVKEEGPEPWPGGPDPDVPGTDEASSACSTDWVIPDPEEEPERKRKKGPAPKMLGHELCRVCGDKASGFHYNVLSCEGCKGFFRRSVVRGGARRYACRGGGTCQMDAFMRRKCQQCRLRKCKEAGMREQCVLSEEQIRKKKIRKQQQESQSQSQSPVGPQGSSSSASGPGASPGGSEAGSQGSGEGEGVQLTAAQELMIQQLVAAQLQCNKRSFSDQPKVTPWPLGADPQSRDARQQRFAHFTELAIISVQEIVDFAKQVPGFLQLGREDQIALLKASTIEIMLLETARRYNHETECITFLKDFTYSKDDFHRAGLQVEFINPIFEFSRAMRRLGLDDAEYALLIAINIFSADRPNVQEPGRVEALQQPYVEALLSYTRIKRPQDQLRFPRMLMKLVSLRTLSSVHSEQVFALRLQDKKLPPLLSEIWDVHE
T1 sequence (P19793 1-462 partner): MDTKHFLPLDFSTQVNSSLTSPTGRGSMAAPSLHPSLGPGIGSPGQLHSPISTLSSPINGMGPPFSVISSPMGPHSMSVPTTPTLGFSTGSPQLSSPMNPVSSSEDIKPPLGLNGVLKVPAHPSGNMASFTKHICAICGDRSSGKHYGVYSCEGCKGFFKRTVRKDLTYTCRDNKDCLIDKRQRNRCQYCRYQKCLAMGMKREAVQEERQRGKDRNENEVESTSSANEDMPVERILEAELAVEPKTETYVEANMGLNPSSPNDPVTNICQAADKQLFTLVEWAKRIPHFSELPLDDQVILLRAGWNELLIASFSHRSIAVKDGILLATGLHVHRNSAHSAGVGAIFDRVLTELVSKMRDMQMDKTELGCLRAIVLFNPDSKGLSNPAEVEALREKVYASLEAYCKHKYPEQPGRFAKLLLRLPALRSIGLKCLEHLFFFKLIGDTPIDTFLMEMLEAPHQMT
Assay: Co-transfection assay (LXRE luciferase reporter), LXRβ
Format: cell-based
Details: for EC50: CV-1 cells transfected with pCMX-hLXRβ and LXREx1-Tk-Luciferase, 20 hours incubation; for Emax: LXRβ co-transfection, relative to high control 1-(2,4-difluorobenzyl)-2-oxo-6-(4-phenoxyphenyl)-4-(trifluoromethyl)-1,2-dihydropyridine-3-carbonitrile, read-out: % Efficacy
Summary of the method: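 CV-1 / pCMX-hLXRβ + LXREx1-Tk-Luc + β-gal; cpd 20 h, 37 °C, ≤0.5% DMSO; Steady-Glo luminescence. 11-pt ½-log curves, duplicate wells, sigmoidal fit → EC50; % efficacy vs high-control agonist, DMSO low control; mean of ≥2 expts.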

Structure (SMILES) | EC50 [nM] | Emax [%]
CS(=O)(=O)c1cccc(-c2ccc(-n3cnc(C(F)F)c3)c(-n3nncc3-c3ccc(OC(F)(F)F)cc3)c2)c1 [Example 170, 1-{4-[4-(difluoromethyl)-1H-imidazol-1-yl]-3′-(methylsulfonyl)biphenyl-3-yl}-5-{4-[(trifluoromethyl)oxy]phenyl}-1H-1,2,3-triazole] | 3330 | 92
Cc1nc(C(F)F)cn1-c1ccc(-c2cccc(S(C)(=O)=O)c2)cc1-n1nncc1-c1ccccc1 [Example 171, 1-{4-[4-(difluoromethyl)-2-methyl-1H-imidazol-1-yl]-3′-(methylsulfonyl)biphenyl-3-yl}-5-phenyl-1H-1,2,3-triazole] | 3090 | 60
Cc1nc(C(F)F)c(Cl)n1-c1ccc(-c2cccc(S(C)(=O)=O)c2)cc1-n1nncc1-c1ccc(OC(F)(F)F)cc1 [Example 172, 1-{4-[5-chloro-4-(difluoromethyl)-2-methyl-1H-imidazol-1-yl]-3′-(methylsulfonyl)biphenyl-3-yl}-5-{4-[(trifluoromethyl)oxy]phenyl}-1H-1,2,3-triazole] | 1030 | 159
Cc1nc(C(C)(F)F)cn1-c1ccc(-c2cccc(S(C)(=O)=O)c2)cc1-n1nncc1-c1ccc(Cl)cc1 [Example 176, 5-(4-chlorophenyl)-1-{4-[4-(1,1-difluoroethyl)-2-methyl-1H-imidazol-1-yl]-3′-(methylsulfonyl)biphenyl-3-yl}-1H-1,2,3-triazole] | 792 | 68
CCS(=O)(=O)c1cccc(-c2ccc(-n3cc(C(C)(F)F)nc3C)c(-n3nncc3-c3ccc(OC(F)(F)F)cc3)c2)c1 [Example 177, 1-{4-[4-(1,1-difluoroethyl)-2-methyl-1H-imidazol-1-yl]-3′-(ethylsulfonyl)biphenyl-3-yl}-5-{4-[(trifluoromethyl)oxy]phenyl}-1H-1,2,3-triazole] | 894 | 78
Cc1nc(C(C)(F)F)cn1-c1ccc(-c2ccc(CO)c(S(C)(=O)=O)c2)cc1-n1nncc1-c1ccc(OC(F)(F)F)cc1 [Example 178, {4′-[4-(1,1-difluoroethyl)-2-methyl-1H-imidazol-1-yl]-3-(methylsulfonyl)-3′-(5-{4-[(trifluoromethyl)oxy]phenyl}-1H-1,2,3-triazol-1-yl)biphenyl-4-yl}methanol] | 638 | 89
COCc1c(F)cc(-c2ccc(-n3cc(C(C)(F)F)nc3C)c(-n3nncc3-c3ccc(OC(F)(F)F)cc3)c2)cc1S(C)(=O)=O [Example 179, 1-{4-[4-(1,1-difluoroethyl)-2-methyl-1H-imidazol-1-yl]-3′-fluoro-4′-[(methyloxy)methyl]-5′-(methylsulfonyl)biphenyl-3-yl}-5-{4-[(trifluoromethyl)oxy]phenyl}-1H-1,2,3-triazole] | 620 | 105
CCC(F)(F)c1cn(-c2ccc(-c3cccc(S(N)(=O)=O)c3)cc2-n2nncc2-c2ccc(OC(F)(F)F)cc2)c(C)n1 [Example 183, 4′-[4-(1,1-difluoropropyl)-2-methyl-1H-imidazol-1-yl]-3′-(5-{4-[(trifluoromethyl)oxy]phenyl}-1H-1,2,3-triazol-1-yl)biphenyl-3-sulfonamide] | 1480 | 74
CS(=O)(=O)c1cccc(-c2cc(F)c(-n3cnc(C(F)(F)F)c3)c(-n3nncc3-c3ccc(OC(F)(F)F)cc3)c2)c1 [Example 188, 1-{5-fluoro-3′-(methylsulfonyl)-4-[4-(trifluoromethyl)-1H-imidazol-1-yl]biphenyl-3-yl}-5-{4-[(trifluoromethyl)oxy]phenyl}-1H-1,2,3-triazole] | 1750 | 89
CS(=O)(=O)c1cc(-c2cc(F)c(-n3cnc(C(F)(F)F)c3)c(-n3nncc3-c3ccc(OC(F)(F)F)cc3)c2)cc(F)c1CO [Example 189, [3,3′-difluoro-5-(methylsulfonyl)-4′-[4-(trifluoromethyl)-1H-imidazol-1-yl]-5′-(5-{4-[(trifluoromethyl)oxy]phenyl}-1H-1,2,3-triazol-1-yl)biphenyl-4-yl]methanol] | 1790 | 95

Other lines, results leading:

EC50 [nM] | Emax [%] | Structure (SMILES)
264 | 148 | Cc1nc(C(F)F)c(Cl)n1-c1ccc(-c2cc(F)c(CO)c(S(C)(=O)=O)c2)cc1-n1nncc1-c1ccc(OC(F)(F)F)cc1 [Example 173, {4′-[5-chloro-4-(difluoromethyl)-2-methyl-1H-imidazol-1-yl]-3-fluoro-5-(methylsulfonyl)-3′-(5-{4-[(trifluoromethyl)oxy]phenyl}-1H-1,2,3-triazol-1-yl)biphenyl-4-yl}methanol]
467 | 88 | Cc1nc(C(C)(F)F)cn1-c1ccc(-c2cc(F)c(CO)c(S(C)(=O)=O)c2)cc1-n1nncc1-c1ccc(OC(F)(F)F)cc1 [Example 174, {4′-[4-(1,1-difluoroethyl)-2-methyl-1H-imidazol-1-yl]-3-fluoro-5-(methylsulfonyl)-3′-(5-{4-[(trifluoromethyl)oxy]phenyl}-1H-1,2,3-triazol-1-yl)biphenyl-4-yl}methanol]
315 | 79 | CNS(=O)(=O)c1cccc(-c2ccc(-n3cc(C(C)(F)F)nc3C)c(-n3nncc3-c3ccc(OC(F)(F)F)cc3)c2)c1 [Example 175, 4′-[4-(1,1-difluoroethyl)-2-methyl-1H-imidazol-1-yl]-N-methyl-3′-(5-{4-[(trifluoromethyl)oxy]phenyl}-1H-1,2,3-triazol-1-yl)biphenyl-3-sulfonamide]
606 | 48 | Cc1nc(C(C)(F)F)cn1-c1ccc(-c2cccc(S(C)(=O)=O)c2)cc1-n1nncc1-c1ccc(Cl)cc1Cl [Example 180, 5-(2,4-dichlorophenyl)-1-{4-[4-(1,1-difluoroethyl)-2-methyl-1H-imidazol-1-yl]-3′-(methylsulfonyl)biphenyl-3-yl}-1H-1,2,3-triazole]
502 | 70 | Cc1nc(C(C)(F)F)cn1-c1ccc(-c2cccc(S(=O)(=O)N(C)C)c2)cc1-n1nncc1-c1ccc(OC(F)(F)F)cc1 [Example 181, 4′-[4-(1,1-difluoroethyl)-2-methyl-1H-imidazol-1-yl]-N,N-dimethyl-3′-(5-{4-[(trifluoromethyl)oxy]phenyl}-1H-1,2,3-triazol-1-yl)biphenyl-3-sulfonamide]
494 | 78 | CCC(F)(F)c1cn(-c2ccc(-c3cccc(S(=O)(=O)N(C)C)c3)cc2-n2nncc2-c2ccc(OC(F)(F)F)cc2)c(C)n1 [Example 182, 4′-[4-(1,1-difluoropropyl)-2-methyl-1H-imidazol-1-yl]-N,N-dimethyl-3′-(5-{4-[(trifluoromethyl)oxy]phenyl}-1H-1,2,3-triazol-1-yl)biphenyl-3-sulfonamide]
337 | 86 | CCC(F)(F)c1cn(-c2ccc(-c3cccc(S(C)(=O)=O)c3)cc2-n2nncc2-c2ccc(OC(F)(F)F)cc2)c(C)n1 [Example 184, 1-{4-[4-(1,1-difluoropropyl)-2-methyl-1H-imidazol-1-yl]-3′-(methylsulfonyl)biphenyl-3-yl}-5-{4-[(trifluoromethyl)oxy]phenyl}-1H-1,2,3-triazole]
297 | 77 | CCC(F)(F)c1cn(-c2ccc(-c3cccc(S(=O)(=O)NC)c3)cc2-n2nncc2-c2ccc(OC(F)(F)F)cc2)c(C)n1 [Example 185, 4′-[4-(1,1-difluoropropyl)-2-methyl-1H-imidazol-1-yl]-N-methyl-3′-(5-{4-[(trifluoromethyl)oxy]phenyl}-1H-1,2,3-triazol-1-yl)biphenyl-3-sulfonamide]
168 | 81 | CCC(F)(F)c1cn(-c2ccc(-c3cc(F)c(CO)c(S(C)(=O)=O)c3)cc2-n2nncc2-c2ccc(OC(F)(F)F)cc2)c(C)n1 [Example 186, {4′-[4-(1,1-difluoropropyl)-2-methyl-1H-imidazol-1-yl]-3-fluoro-5-(methylsulfonyl)-3′-(5-{4-[(trifluoromethyl)oxy]phenyl}-1H-1,2,3-txiazol-1-yl)biphenyl-4-yl}methanol]
518 | 92 | CS(=O)(=O)c1cccc(-c2cc(F)c(-n3cnc(C(F)(F)F)c3)c(-n3nncc3-c3ccc(Cl)cc3)c2)c1 [Example 187, 5-(4-chlorophenyl)-1-{5-fluoro-3′-(methylsulfonyl)-4-[4-(trifluoromethyl)-1H-imidazol-1-yl]biphenyl-3-yl}-1H-1,2,3-triazole]
